Our source for the relative viability values is the supplement of paper PMC10307832.

Holding throughout (experiment): relative viability (nuclei count vs DMSO), 5 days (fraction); higher = more cells survive
Experiment [1] has as its system A549. The method in brief: (§1)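 Lung cancer cell lines in 1536-well plates got either a single drug or a fixed anchor-drug dose together with five library-drug doses (not always all listed) in √10 steps, by pin tool, on the day after seeding. Nuclei were counted after 5 days, and relative viability is the treated-to-vehicle ratio of nuclei counts. Values are medians of duplicate plates.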

Experiment [2] has as its system Calu-6. The method in brief:
as §1

The test system of experiment [3] is EBC-1. The method in brief:
as §1

For experiment [4], the system named is IA-LM. The method in brief: as §1
Experiment [5] concerns NCI-H1299. The method in brief:
as §1

Experiment [6] has as its system NCI-H1703. A digest of the protocol: as §1
The subject of experiment [7] is NCI-H1648. The method in brief: as §1
The test system of experiment [8] is NCI-H661. The method in brief:
as §1

Take `Clc1ccc(Nc2nnc(Cc3ccncc3)c3ccccc23)cc1` [Vatalanib] + CC1(C)CCC(c2ccc(Cl)cc2)=C(CN2CCN(c3ccc(C(=O)NS(=O)(=O)c4ccc(N[C@H](CCN5CCOCC5)CSc5ccccc5)c(S(=O)(=O)C(F)(F)F)c4)cc3)CC2)C1 [Navitoclax] (partner 0.5 µM): the relative viability is 1.21 in experiment [1] (first compound 0.04 µM); 1.33 in experiment [1] (first compound 0.1265 µM); 1.31 in experiment [1] (first compound 0.4 µM); 1.16 in experiment [1] (first compound 1.265 µM); 1.06 in experiment [1] (first compound 4 µM); 0.919 in experiment [2] (first compound 0.04 µM). In addition, the relative viability came to 0.756 in experiment [2] (first compound 0.1265 µM); 0.913 in experiment [2] (first compound 0.4 µM); 0.788 in experiment [2] (first compound 1.265 µM); 0.757 in experiment [2] (first compound 4 µM); 0.382 in experiment [3] (first compound 0.04 µM); 0.396 in experiment [3] (first compound 0.1265 µM). Also, the relative viability in experiment [3] (first compound 0.4 µM) turned out to be 0.46; in experiment [3] (first compound 1.265 µM), 0.368; in experiment [3] (first compound 4 µM) it was 0.328; in experiment [4] (first compound 0.04 µM) it was 0.869; in experiment [4] (first compound 0.1265 µM), 0.701; in experiment [4] (first compound 0.4 µM), 0.686. The relative viability in experiment [4] (first compound 1.265 µM) worked out at 0.746; in experiment [4] (first compound 4 µM) it was 0.737; in experiment [5] (first compound 0.04 µM), 1.04; in experiment [5] (first compound 0.1265 µM), 1.05; in experiment [5] (first compound 0.4 µM), 1.06; in experiment [5] (first compound 1.265 µM), 1.04. The relative viability came to 1.06 in experiment [5] (first compound 4 µM); 0.994 in experiment [6] (first compound 0.04 µM); 1.71 in experiment [6] (first compound 0.4 µM); 0.643 in experiment [6] (first compound 1.265 µM); 0.301 in experiment [6] (first compound 4 µM).
In the case of `C[C@@H]1CN(CC(=O)Nc2ccc3c(c2)Cc2cccc(-c4cc(=O)cc(N5CCOCC5)o4)c2S3)C[C@H](C)O1` + NC(=O)Nc1cc(-c2cccc(F)c2)sc1C(=O)N[C@H]1CCCNC1 [AZD7762] (partner 0.2 µM), the relative viability was found to be 0.519 in experiment [7] (first compound 0.04 µM); 0.574 in experiment [7] (first compound 0.1265 µM); 0.961 in experiment [7] (first compound 0.4 µM); 0.604 in experiment [7] (first compound 4 µM); 0.137 in experiment [6] (first compound 0.04 µM); 0.11 in experiment [6] (first compound 0.1265 µM). Also, the results for the relative viability in experiment [6] (first compound 0.4 µM) and in experiment [6] (first compound 4 µM) were 0.141 and 0.117, respectively.
In the case of `CC(C)Oc1cc(Nc2nc(N[C@@H](C)c3ccc(F)cn3)ncc2Cl)n[nH]1` [AZ23] + C[C@]1(O)C[C@@H](c2nc(-c3ccc4ccc(-c5ccccc5)nc4c3)c3c(N)nccn32)C1 [Linsitinib] (partner 1 µM), the relative viability was 0.659 in experiment [1] (first compound 0.01 µM); 0.572 in experiment [1] (first compound 0.03162 µM); 0.701 in experiment [1] (first compound 0.3162 µM); 1.01 in experiment [2] (first compound 0.03162 µM); 0.953 in experiment [2] (first compound 0.3162 µM); 1.1 in experiment [3] (first compound 0.01 µM). In addition, the relative viability amounted to 0.836 in experiment [3] (first compound 0.03162 µM); 1.07 in experiment [3] (first compound 0.3162 µM); 0.601 in experiment [4] (first compound 0.01 µM); 0.386 in experiment [4] (first compound 0.03162 µM); 0.627 in experiment [4] (first compound 0.3162 µM); 0.977 in experiment [5] (first compound 0.01 µM). Further, the relative viability in experiment [5] (first compound 0.03162 µM) was 0.99; in experiment [5] (first compound 0.3162 µM), 1.09; in experiment [6] (first compound 0.03162 µM), 0.647; in experiment [6] (first compound 0.3162 µM), 0.592; in experiment [8] (first compound 0.01 µM), 0.531; in experiment [8] (first compound 0.03162 µM) it was 0.776. Moreover, the relative viability in experiment [8] (first compound 0.3162 µM) worked out at 0.623.
As to `COc1cc(N2CCC(C(N)=O)CC2)ccc1Nc1nc(N)c(Cl)c(Nc2ccccc2S(=O)(=O)C(C)C)n1` [HG-5-88-01] + CC1(C)CCC(c2ccc(Cl)cc2)=C(CN2CCN(c3ccc(C(=O)NS(=O)(=O)c4ccc(N[C@H](CCN5CCOCC5)CSc5ccccc5)c(S(=O)(=O)C(F)(F)F)c4)cc3)CC2)C1 [Navitoclax] (partner 0.5 µM), the relative viability was 1.23 in experiment [1] (first compound 0.04 µM); 1.21 in experiment [1] (first compound 0.1265 µM); 1.07 in experiment [1] (first compound 0.4 µM); 0.87 in experiment [1] (first compound 1.265 µM); 0.687 in experiment [1] (first compound 4 µM); 0.958 in experiment [2] (first compound 0.04 µM). The relative viability in experiment [2] (first compound 0.1265 µM) is 0.86; in experiment [2] (first compound 0.4 µM), 0.717; in experiment [2] (first compound 1.265 µM), 0.693; in experiment [2] (first compound 4 µM), 0.46; in experiment [3] (first compound 0.04 µM), 0.407; in experiment [3] (first compound 0.1265 µM) it was 0.457. The relative viability in experiment [3] (first compound 0.4 µM) was 0.427; in experiment [3] (first compound 1.265 µM), 0.241; in experiment [3] (first compound 4 µM), 0.217; in experiment [4] (first compound 0.04 µM) it was 0.835; in experiment [4] (first compound 0.1265 µM), 0.794; in experiment [4] (first compound 0.4 µM), 0.731. Besides, the relative viability in experiment [4] (first compound 1.265 µM) is 0.825; in experiment [4] (first compound 4 µM), 0.802; in experiment [5] (first compound 0.04 µM), 1.03; in experiment [5] (first compound 0.1265 µM) it was 1.08; in experiment [5] (first compound 0.4 µM), 1.03; in experiment [5] (first compound 1.265 µM) it was 1.06. Also, the relative viability is 1.02 in experiment [5] (first compound 4 µM); 0.719 in experiment [6] (first compound 0.04 µM); 1.22 in experiment [6] (first compound 0.1265 µM); 1.2 in experiment [6] (first compound 0.4 µM); 0.926 in experiment [6] (first compound 1.265 µM); 0.762 in experiment [6] (first compound 4 µM).
